Test results reported in patent US7728012B2, “Carboxamide compounds and their use as calpain inhibitors” (Abbott GmbH & Co. KG, priority 2006, dated 2010).

Columns and labels:
Format in all cases: biochemical
[1] = target: T1, calpain-I isolated from human erythrocytes (Homo sapiens, UniProt P07384); assay: Calpain I kinetic fluorescence enzyme inhibition assay; conditions: apparent Ki from IC50 by Cheng-Prussoff; average of 2 to 4 dose-effect plots
T1 construct: calpain-I—isolated from human erythrocytes; purchased Calbiochem 208713; host or cells: human erythrocytes (tissue isolate)
T1 sequence (P07384 1-714): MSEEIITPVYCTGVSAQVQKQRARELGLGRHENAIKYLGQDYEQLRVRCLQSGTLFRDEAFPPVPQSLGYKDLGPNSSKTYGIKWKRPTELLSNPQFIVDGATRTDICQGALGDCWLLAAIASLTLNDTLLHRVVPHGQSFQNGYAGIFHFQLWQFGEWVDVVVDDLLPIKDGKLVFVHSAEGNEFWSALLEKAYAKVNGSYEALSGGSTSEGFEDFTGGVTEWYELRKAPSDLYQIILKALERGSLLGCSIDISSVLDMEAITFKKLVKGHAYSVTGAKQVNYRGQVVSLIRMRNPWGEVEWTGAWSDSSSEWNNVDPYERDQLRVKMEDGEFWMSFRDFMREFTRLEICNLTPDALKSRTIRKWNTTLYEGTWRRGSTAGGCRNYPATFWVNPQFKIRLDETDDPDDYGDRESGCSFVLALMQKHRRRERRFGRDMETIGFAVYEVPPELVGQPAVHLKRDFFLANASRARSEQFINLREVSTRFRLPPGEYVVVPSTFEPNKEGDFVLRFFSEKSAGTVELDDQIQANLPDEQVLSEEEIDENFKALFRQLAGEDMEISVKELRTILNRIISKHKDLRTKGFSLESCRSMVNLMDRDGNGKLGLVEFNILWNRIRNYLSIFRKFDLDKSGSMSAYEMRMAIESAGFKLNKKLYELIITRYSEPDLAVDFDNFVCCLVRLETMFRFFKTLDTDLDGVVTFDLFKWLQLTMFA
T1 sequence (P04632 1-268 partner): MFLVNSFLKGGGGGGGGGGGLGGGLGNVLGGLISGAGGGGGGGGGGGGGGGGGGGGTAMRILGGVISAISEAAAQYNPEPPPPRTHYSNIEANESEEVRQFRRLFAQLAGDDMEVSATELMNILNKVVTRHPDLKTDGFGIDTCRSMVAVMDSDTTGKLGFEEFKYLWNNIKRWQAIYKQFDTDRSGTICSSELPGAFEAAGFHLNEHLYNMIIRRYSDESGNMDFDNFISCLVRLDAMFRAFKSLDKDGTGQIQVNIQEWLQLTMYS

[2] = target: T2, cathepsin B isolated from human liver (Homo sapiens, UniProt P07858); assay: Cathepsin B kinetic fluorescence enzyme inhibition assay; conditions: selectivity ratio versus calpain I
T2 construct: cathepsin B—isolated from human liver; purchased Calbiochem 219362; host or cells: human liver (tissue isolate)
Procedure: (§1) The following solutions and buffers were employed: • HBS (for 40 ml): 800 μl M HEPES; 2.16 ml 100 mM KCl; 4.8 ml 1M NaCl; 3.59 ml 5% glucose; 60 μl μM MgSO4; 400 μl 100 mM Na pyruvate, 28.19 ml water; pH 7.2-7.5. • lysis buffer (for 20 ml): 400 μl M Tris pH 8.2; 2.74 ml 1M NaCl; 520 μl 0.5M EDTA; 2 ml 10% triton X-100; 0.8 ml (=1:25) CompletePlus (1 tablet/2 ml H2O); 200 μl 100 mM Pefabloc; 13.34 ml water, pH 8.2. • TBST (10×) (for 1 l): 100 mM Tris (12.1 g); 1.5M NaCl (87 g); 1% Tween 20 (10 g), adjusted to pH 8. I Enzyme Inhibition In Vitro: • Testing for blockade of the corresponding enzymic activities was carried out by means of kinetic fluorescence assays (excitation 390 nm, emission 460 nm). • Apparent Ki values were calculated from the experimentally determined IC50 values by the Cheng-Prussoff relation assuming a reversible competitive enzyme inhibition. The Km values of the substrates used under the assay conditions indicated above were: 90 μM (Z-Phe-Arg-AMC, cathepsin B), 10 μM (Z-Gly-Pro-Arg-AMC, cathepsin K), 2 μM (Z-Phe-Arg-AMC, cathepsin L), and 30 μM (Z-Val-Val-Arg-AMC, cathepsin S). • The indicated Ki values are averages of the inhibition constants calculated on the basis of 2 to 4 independent dose-effect plots.
(§2) The following assays were used: • 1. Calpain I: • 20 nM calpain-I—isolated from human erythrocytes (Calbiochem #208713), 100 μM Suc-Leu-Tyr-AMC (Bachem #1-1355) as substrate in buffer with 62 mM imidazole, 0.3 mM CaCl2, 0.10% CHAPS, 0.05% BSA, 1 mM DTT at pH 7.3 and room temperature. • 2. Cathepsin B: • 0.25 nM cathepsin B—isolated from human liver (Calbiochem #219362), 100 μM Z-Phe-Arg-AMC (Bachem #I-1160) as substrate 50 mM MES, 2 mM EDTA, 0.05% Brij 35, 2.5 mM L-cysteine, pH 6.0, room temperature. • 3. Cathepsin K: • 3 nM cathepsin K—activated from recombinant human procathepsin K from E. coli (Calbiochem #342001), 10 μM Z-Gly-Pro-Arg-AMC (Biomol #P-142) as substrate in 50 mM MES, 2 mM EDTA, 0.05% Brij 35, 2.5 mM L-cysteine, pH 6.0, room temperature. • 4. Cathepsin L: • 1 nM cathepsin L—isolated from human liver (Calbiochem #219402), 2 μM Z-Phe-Arg-AMC (Bachem #1-1160) as substrate in 50 mM MES, 2 mM EDTA, 0.05% Brij 35, 2.5 mM L-cysteine, pH 6.0, room temperature. • 5. Cathepsin S: • 0.5 nM recombinant human cathepsin S from E. coli (Calbiochem #219343), 20 μM Z-Val-Val-Arg-AMC (Bachem #1-1540) as substrate in 50 mM MES, 2 mM EDTA, 0.05% Brij 35, 2.5 mM L-cysteine, pH 6.0, room temperature. • The results of the in vitro determination are indicated in Table 1. The following abbreviations are used in Table 1: • The “Calpain activity” column, ++ stands for a calpain Ki (Ki(calpain)) of ≦40 nM and + means: 40 nM<Ki(Calpain)≦100 nM. • The “Sel. cat. B” column indicates the Ki(cathepsin B)/Ki(calpain) ratio. In this connection, ++ means a Ki(cathepsin B)/Ki(calpain) ratio of ≧30 and + means 10≦Ki(cathepsin B)/Ki(calpain)<30. • The “Sel. cat. K” column indicates the Ki(cathepsin K)/Ki(calpain) ratio. In this connection, ++ means a Ki(cathepsin K)/Ki(calpain) ratio of ≧30 and + means 10≦Ki(cathepsin K)/Ki(calpain)<30. • The “Sel. cat. L” column indicates the Ki(cathepsin L)/Ki(calpain) ratio. In this connection, ++ means a Ki(cathepsin L)/Ki(calpain) ratio of ≧50 and + means 30≦Ki(cathepsin L)/Ki(calpain)<50. • The “Sel. cat. S” column indicates the Ki(cathepsin S)/Ki(calpain) ratio. In this connection, ++ means a Ki(cathepsin S)/Ki(calpain) ratio of ≧100 and + means 50≦Ki(cathepsin S)/Ki(calpain)<100.

[3] = target: T3, recombinant human cathepsin S (Homo sapiens, UniProt P25774); assay: Cathepsin S kinetic fluorescence enzyme inhibition assay; conditions: selectivity ratio versus calpain I
T3 construct: purchased Calbiochem 219343; host or cells: E. coli
Procedure, shortened: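 Inhibition is measured at room temperature in cysteine-containing MES buffer, pH 6.0, by continuous fluorescence at 460 nm. Cathepsin S (0.5 nM) uses 20 μM Z-Val-Val-Arg-AMC; L (1 nM) and B (0.25 nM) use Z-Phe-Arg-AMC at 2 and 100 μM respectively.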

[4] = target: T4, cathepsin L isolated from human liver (Homo sapiens, UniProt P07711); assay: Cathepsin L kinetic fluorescence enzyme inhibition assay; conditions: selectivity ratio versus calpain I
T4 construct: cathepsin L—isolated from human liver; purchased Calbiochem 219402; host or cells: human liver (tissue isolate)
Procedure: as §1, §2

T3 sequence (P25774 115-331): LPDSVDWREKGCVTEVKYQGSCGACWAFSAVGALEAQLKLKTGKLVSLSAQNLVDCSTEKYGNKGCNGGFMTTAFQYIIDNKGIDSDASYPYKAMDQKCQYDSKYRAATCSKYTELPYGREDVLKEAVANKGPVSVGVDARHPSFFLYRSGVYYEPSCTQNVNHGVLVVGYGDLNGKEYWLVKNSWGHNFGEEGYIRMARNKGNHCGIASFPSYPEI
T4 sequence (P07711 114-333): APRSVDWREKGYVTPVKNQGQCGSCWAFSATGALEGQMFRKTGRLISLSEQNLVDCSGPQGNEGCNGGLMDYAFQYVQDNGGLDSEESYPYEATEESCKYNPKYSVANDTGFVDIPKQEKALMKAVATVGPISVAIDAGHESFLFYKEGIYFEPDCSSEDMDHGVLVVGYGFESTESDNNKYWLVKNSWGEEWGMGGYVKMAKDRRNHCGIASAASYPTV

Compound: CCCCC(NC(=O)c1cc(Cl)cnc1-n1ccc(-c2ccccc2)n1)C(=O)C(N)=O (stereo not drawn) [Example 28, N-{1-[Amino(oxo)acetyl]pentyl}-5-chloro-2-(3-phenyl-1H-pyrazol-1-yl)nicotinamide]
- Ki [1]: ≤ 40 nM
- Sel cat. B (Ki(cathepsin B)/Ki(calpain) ratio) [2]: + (10≦Ki(cathepsin B)/Ki(calpain)<30)

Compound: CC(C)CC(NC(=O)c1cc(Cl)cnc1-n1ccc(-c2ccccc2)n1)C(=O)C(N)=O (stereo not drawn) [Example 32, N-{1-[Amino(oxo)acetyl]-3-methylbutyl}-5-chloro-2-(3-phenyl-1H-pyrazol-1-yl)nicotinamide]
- Ki [1]: ≤ 40 nM
- Sel cat. B (Ki(cathepsin B)/Ki(calpain) ratio) [2]: + (10≦Ki(cathepsin B)/Ki(calpain)<30)

Compound: CCCCC(NC(=O)c1cccnc1-n1ccc(-c2ccc(N3CCOCC3)cc2)n1)C(=O)C(N)=O (stereo not drawn) [Example 33, N-{1-[Amino(oxo)acetyl]pentyl}-2-[3-(4-morpholin-4-ylphenyl)-1H-pyrazol-1-yl]nicotinamide]
- Ki [1]: ≤ 40 nM
- Sel cat. B (Ki(cathepsin B)/Ki(calpain) ratio) [2]: + (10≦Ki(cathepsin B)/Ki(calpain)<30)
- Sel cat. S (Ki(cathepsin S)/Ki(calpain) ratio) [3]: + (50≦Ki(cathepsin S)/Ki(calpain)<100)

Compound: Cc1cc(-c2ccccc2)nn1-c1ncccc1C(=O)NC(Cc1ccccc1)C(=O)C(N)=O (stereo not drawn) [Example 61, N-(3-Amino-1-benzyl-2,3-dioxopropyl)-2-(5-methyl-3-phenyl-1H-pyrazol-1-yl)nicotinamide]
- Sel cat. B (Ki(cathepsin B)/Ki(calpain) ratio) [2]: + (10≦Ki(cathepsin B)/Ki(calpain)<30)
- Sel cat. S (Ki(cathepsin S)/Ki(calpain) ratio) [3]: ++ (Ki(cathepsin S)/Ki(calpain) ratio of ≧100)

Compound: N#Cc1ccc(-c2ccn(-c3ncccc3C(=O)NC(Cc3ccccc3)C(=O)C(N)=O)n2)cc1 (stereo not drawn) [Example 62, N-(3-Amino-1-benzyl-2,3-dioxopropyl)-2-[3-(4-cyanophenyl)-1H-pyrazol-1-yl]nicotinamide]
- Ki [1]: 40 to 100 nM
- Sel cat. L (Ki(cathepsin L)/Ki(calpain) ratio) [4]: ++ (Ki(cathepsin L)/Ki(calpain) ratio of ≧50)
- Sel cat. S (Ki(cathepsin S)/Ki(calpain) ratio) [3]: ++ (Ki(cathepsin S)/Ki(calpain) ratio of ≧100)

Compound: NC(=O)C(=O)C(Cc1ccccc1)NC(=O)c1cccnc1-n1ccc(-c2ccc(N3CCCCC3)cc2)n1 (stereo not drawn) [Example 64, N-(3-Amino-1-benzyl-2,3-dioxopropyl)-2-[3-(4-piperidin-1-ylphenyl)-1H-pyrazol-1-yl]nicotinamide]
- Ki [1]: ≤ 40 nM
- Sel cat. B (Ki(cathepsin B)/Ki(calpain) ratio) [2]: + (10≦Ki(cathepsin B)/Ki(calpain)<30)
- Sel cat. S (Ki(cathepsin S)/Ki(calpain) ratio) [3]: ++ (Ki(cathepsin S)/Ki(calpain) ratio of ≧100)

Compound: NC(=O)C(=O)C(Cc1ccccc1)NC(=O)c1cccnc1-n1cc2ccccc2n1 (stereo not drawn) [Example 78, N-(3-Amino-1-benzyl-2,3-dioxopropyl)-2-(2H-indazol-2-yl)nicotinamide]
- Ki [1]: 40 to 100 nM
- Sel cat. L (Ki(cathepsin L)/Ki(calpain) ratio) [4]: ++ (Ki(cathepsin L)/Ki(calpain) ratio of ≧50)
- Sel cat. S (Ki(cathepsin S)/Ki(calpain) ratio) [3]: + (50≦Ki(cathepsin S)/Ki(calpain)<100)

Compound: NC(=O)C(=O)C(Cc1ccccc1)NC(=O)c1ccccc1-n1ccc(-c2ccccc2)n1 (stereo not drawn) [Example 106, N-[3-Amino-2,3-dioxo-1-(phenylmethyl)propyl]-2-(3-phenyl-1H-pyrazol-1-yl)benzamide]
- Ki [1]: ≤ 40 nM
- Sel cat. L (Ki(cathepsin L)/Ki(calpain) ratio) [4]: + (30≦Ki(cathepsin L)/Ki(calpain)<50)
- Sel cat. S (Ki(cathepsin S)/Ki(calpain) ratio) [3]: ++ (Ki(cathepsin S)/Ki(calpain) ratio of ≧100)

Compound: NC(=O)C(=O)C(Cc1ccccc1)NC(=O)c1cccnc1-n1cc2c(n1)-c1ccccc1OCC2 (stereo not drawn) [Example 141, N-[3-Amino-2,3-dioxo-1-(phenylmethyl)propyl]-2-(4,5-dihydro-2H-[1]benzoxepino[5,4-c]pyrazol-2-yl)pyridine-3-carboxamide]
- Ki [1]: 40 to 100 nM
- Sel cat. L (Ki(cathepsin L)/Ki(calpain) ratio) [4]: ++ (Ki(cathepsin L)/Ki(calpain) ratio of ≧50)
- Sel cat. S (Ki(cathepsin S)/Ki(calpain) ratio) [3]: ++ (Ki(cathepsin S)/Ki(calpain) ratio of ≧100)

Compound: CS(=O)(=O)NCc1cn(-c2ncccc2C(=O)NC(Cc2ccccc2)C(=O)C(N)=O)nc1-c1ccc(F)cc1 (stereo not drawn) [Example 187, N-[3-Amino-2,3-dioxo-1-(phenylmethyl)propyl]-2-[3-(4-fluorophenyl)-4-{[(methylsulfonyl)amino]methyl}-1H-pyrazol-1-yl]pyridine-3-carboxamide]
- Ki [1]: 40 to 100 nM
- Sel cat. L (Ki(cathepsin L)/Ki(calpain) ratio) [4]: + (30≦Ki(cathepsin L)/Ki(calpain)<50)
- Sel cat. S (Ki(cathepsin S)/Ki(calpain) ratio) [3]: ++ (Ki(cathepsin S)/Ki(calpain) ratio of ≧100)
